In paper PMC4045308 (Investigational New Drugs, 2013):
pIC50, pKi: −log10 of the molar value. “And” between values parts separate entries of the source, which are not always exact repeats. Equal values may be shown once. Read-outs that look alike come from different tables or passages of the source. Marks after values point to notes of the source that are not given here.

Assays:
[1] = cited from earlier work
AAK [2] = details: read-out: inhibition constant (Ki); cited from earlier work
[3] = test system: advanced heme-lymphatic malignancies (MM, NHL, CLL); assay: phase I study: antitumor response; assay type: in vivo, patients
Description: Response was evaluated according to the International Working Group criteria for patients with lymphoma, the International Myeloma Working Group uniform response criteria for patients with MM [28], and the International Workshop on CLL guidelines.

PTCL cell lines = details: cited from earlier work
[4] = test system: aggressive B- and T-cell NHL; details: 50 mg BID, cited from earlier work
[5] = phase I study: plasma pharmacokinetics; assay type: in vivo, patients; details: for AUC(0-t) / Tmax / half-life: human, plasma, oral; for AUC(0-t): read-out: Geometric mean AUC0–tlast (CV, %); for Tmax: read-out: Median Tmax (range)
Description: PK parameters included: area under the plasma concentration versus time curve, maximum plasma concentration, time to maximum plasma concentration (Tmax), terminal half-life (t1/2), accumulation ratio (Rac), and peak/trough ratio. Secondary endpoints were response rate, duration of response, and evaluation of banked tumor tissue samples for AAK protein expression and gene amplification.
Plasma samples were collected in cycle 1 at various time points on the first day (day 1) and last day (day 7, ECT 7-day schedule; day 14, PIC or ECT 14-day schedules; day 21, PIC 21-day schedule) of treatment. PK parameters were calculated by non-compartmental analysis using WinNonlin software (v5.2.1, Pharsight Corporation, Cary, NC).

[6] = twice-daily (BID), 7-day schedule in 21-day cycles, solid tumors; cited from earlier work
Aurora B kinase = details: cell-based assays; cited from earlier work
mantle cell lymphoma = details: cited from earlier work
[7] = phase I study: adverse events (NCI-CTCAE v3.0)
[8] = test system: multiple myeloma (MM) cells; details: in vitro; cited from earlier work
[9] = phase I study: DLTs and MTD
Description: Dosing schedules are summarized in Supplementary Fig. S1 (online only). The PIC formulation starting dose was 25 or 35 mg/day. […] For the ECT formulation, the starting dose was 40 mg/day QD for 14 days followed by 14 days’ rest in 28-day cycles.
If 2 of the first 3–6 patients experienced DLTs at a given dose level, dose escalation was delayed while the available safety/clinical data were assessed and a decision made on how to proceed with a modified dose or schedule. […] The use of myeloid growth factors (G-CSF or GM-CSF) or erythropoiesis-stimulating agents was permitted after the DLT evaluation period was completed (cycle 1) and on a case-by-case basis after cycle 2. Treatment continued for up to 12 months, or until disease progression or unacceptable toxicity, with the possibility of treatment extension beyond 12 months if clinical benefit was evident and toxicities were manageable.

[10] = in vivo
AAK [11] = details: cell-based assays; cited from earlier work
xenograft MM model = details: cited from earlier work
[12] = 30 mg, ECT 30 mg BID, 7-day schedule, Day 1, first dose, N 3
[13] = 30 mg, ECT 30 mg BID, 7-day schedule, Day 7, N 3
[14] = 40 mg, ECT 40 mg BID, 7-day schedule, Day 1, first dose, N 9
[15] = 40 mg, ECT 40 mg BID, 7-day schedule, Day 7, N 8
[16] = 50 mg, ECT 50 mg BID, 7-day schedule, Day 7, N 7

## COc1cc(Nc2ncc3c(n2)-c2ccc(Cl)cc2C(c2c(F)cccc2OC)=NC3)ccc1C(=O)O [MLN8237, alisertib]
[1]
  aqueous solubility: low
AAK [2]
  pKi: […]
[3]; 13 patients with SD
  duration of stable disease: […]
[3]; 47 response-evaluable patients
  patients achieving partial response (PR): […]
  patients with partial response (PR): […]
[3]; N = 58
  patients discontinued due to progressive disease: 64%
PTCL cell lines
  effect on PTCL cell lines: induces endo-reduplication and apoptosis
[4]; 48 treated patients
  CR: […]
  PR: […]
  overall response rate: […]
  patients achieving SD: […]
[4]
  patients with T-cell lymphoma who had a response: […]
[5]; ECT 30 mg BID, 7-day schedule, Day 7, N 3
  Geometric mean CLss/F (CV, %): […]
[5]; ECT 40 mg BID, 7-day schedule, Day 7, n=7
  Geometric mean CLss/F (CV, %): […]
[5]; ECT 50 mg BID, 7-day schedule, Day 7, N 7
  Geometric mean CLss/F (CV, %): […]
[5]; all formulations, CV 69 %, n = 42
  Mean CLss/F: […]
[5]; [12]
  AUC(0-t): […]
  Tmax: […]
[5]; [13]
  AUC(0-t): […]
  Tmax: […]
[5]; 30 mg, ECT 30 mg BID, 7-day schedule, Day 7, n=1, read-out: Mean t1/2 (sd) (converted)
  half-life: […]
[5]; [14]
  AUC(0-t): […]
  Tmax: […]
[5]; [15]
  AUC(0-t): […]
  Tmax: […]
[5]; 40 mg, ECT 40 mg BID, 7-day schedule, Day 7, n=4, read-out: Mean t1/2 (sd) (converted)
  half-life: […]
[5]; 50 mg, ECT 50 mg BID, 7-day schedule, Day 1, first dose, N 10
  Tmax: […]
[5]; 50 mg, ECT 50 mg BID, 7-day schedule, Day 1, first dose, n=9
  AUC(0-t): […]
[5]; [16]
  AUC(0-t): […]
  Tmax: […]
[5]; 50 mg, ECT 50 mg BID, 7-day schedule, Day 7, n=5, read-out: Mean t1/2 (sd) (converted)
  half-life: […]
[5]; multiple-dose administration, PIC and ECT, read-out: overall mean steady-state t1/2 (terminal half-life) (converted)
  half-life: […]
[5]; multiple-dose administration, PIC and ECT, read-out: steady-state t1/2, range
  half-life: […]
[6]
  maximum tolerated dose (MTD): […]
Aurora B kinase
  pIC50: […]
Mantle cell lymphoma
  tumor growth: inhibit tumor growth
[7]; N = 58
  patients reporting drug-related AEs: […]
[7]; all cohorts
  grade 3 or higher febrile neutropenia, frequency: […]
[7]; all cohorts, N = 58
  grade ≥3 drug-related anemia, patients: […]
  grade ≥3 drug-related leukopenia, patients: […]
  grade ≥3 drug-related neutropenia, patients: […]
  grade ≥3 drug-related thrombocytopenia, patients: […]
[7]; all doses and schedules
  Alopecia, drug-related AE, All grades: […]
  Anemia, drug-related AE, All grades: […]
  Anemia, drug-related AE, Grade ≥3: […]
  Decreased WBC count, drug-related AE, All grades: […]
  Decreased WBC count, drug-related AE, Grade ≥3: […]
  Diarrhea, drug-related AE, All grades: […]
  Diarrhea, drug-related AE, Grade ≥3: […]
  Fatigue, drug-related AE, All grades: […]
  Fatigue, drug-related AE, Grade ≥3: […]
  Febrile neutropenia, drug-related AE, All grades: […]
  Febrile neutropenia, drug-related AE, Grade ≥3: […]
  Leukopenia, drug-related AE, All grades: […]
  Leukopenia, drug-related AE, Grade ≥3: […]
  Lymphopenia, drug-related AE, All grades: […]
  Lymphopenia, drug-related AE, Grade ≥3: […]
  Nausea, drug-related AE, All grades: […]
  Neutropenia, drug-related AE, All grades: […]
  Neutropenia, drug-related AE, Grade ≥3: […]
  Somnolence, drug-related AE, All grades: […]
  Stomatitis, drug-related AE, All grades: […]
  Stomatitis, drug-related AE, Grade ≥3: […]
  Thrombocytopenia, drug-related AE, All grades: […]
  Thrombocytopenia, drug-related AE, Grade ≥3: […]
  Vomiting, drug-related AE, All grades: […]
[7]; during treatment or within 30 days of last dose
  On-study deaths: […]
[7]; in vivo
  discontinued treatment due to drug-related bullous dermatitis: […]
  discontinued treatment due to drug-related confusion: […]
  discontinued treatment due to drug-related thrombocytopenia: […]
[7]; patients with advanced heme-lymphatic malignancies
  tolerability: generally well tolerated
[7]; safety population
  Any AE resulting in discontinuation: […]
  Any drug-related AE: […]
  Any drug-related grade ≥3 AE: […]
  Any treatment-emergent AE: […]
  Any treatment-emergent grade ≥3 AE: […]
  Any treatment-emergent serious AE: […]
[8]
  effect on MM cells: mitotic spindle abnormalities, mitotic accumulation, and apoptosis
[9]; ECT 7-day schedule, BID
  MTD: […]
[9]; PIC 14-day schedule, QD
  MTD: […]
[9]; human, in vivo, 7 days
  recommended phase II dose: […]
[10]
  on-study deaths considered treatment-related: none
AAK [11]
  pIC50: […]
Xenograft MM model; P = 0.0044
  overall survival: significantly increased
Xenograft MM model; P = 0.007
  tumor burden: significantly reduced
